Counter-ions that a name gives are not always drawn.
How the values were obtained:
Test in all cases: MIC by agar dilution method
Type in all cases: cell-based
[1] = test system: Enterobacter cloacae IFO 12937; details: IFO12937, test organism (6), Trypticase soy agar, about 10^8 CFU/mℓ, overnight at 37°C
Method: (§1) With regard to the objective compounds as obtained in Examples 2 to 5 and 17 to 19, MICs (µg/mℓ) were measured by the method to be described below and the results are tabulated in the following table.
(§2) The MIC of a test compound was determined by the agar dilution method. Thus, 1.0 mℓ each of successively diluted,; aqueous solutions of a test compound are poured in a petri dish, respectively, and then 9.0 mℓ of Trypticase soy agar was poured, followed by mixing. A suspension (about 10^8 CFU/ mℓ) of a test organism was smeared on the mixed agar plates. After incubation overnight at 37°C, the minimum concentration of the test compound to inhibit fully the growth of the test organism is determined as the minimal inhibitory concentration (MIC).
(§3) • (1) Escherchia coli NIHJ JC-2; • (2) Serratia marcescens IFO 12648 • (3) Proteus vulgaris IFO 3988 • (4) Proteus mirabilis IFO 3849 • (5) Pseudomonas aeruginosa IFO 3455 • (6) Enterobacter cloacae IFO 12937

[2] = test system: Escherchia coli NIHJ JC-2; details: test organism (1); Trypticase soy agar, about 10^8 CFU/mℓ, overnight at 37°C
Method: as §1, §2, §3

[3] = test system: Proteus mirabilis IFO 3849; details: IFO3849, test organism (4), Trypticase soy agar, about 10^8 CFU/mℓ, overnight at 37°C
Method: as §1, §2, §3

[4] = test system: Proteus vulgaris IFO 3988; details: IFO3988, test organism (3), Trypticase soy agar, about 10^8 CFU/mℓ, overnight at 37°C
Method: as §1, §2, §3

[5] = test system: Pseudomonas aeruginosa IFO 3455; details: IFO3455, test organism (5), Trypticase soy agar, about 10^8 CFU/mℓ, overnight at 37°C
Method: as §1, §2, §3

[6] = test system: Serratia marcescens IFO 12648; details: IFO12648, test organism (2), Trypticase soy agar, about 10^8 CFU/mℓ, overnight at 37°C
Method: as §1, §2, §3

| Compound | MIC [1] | MIC [2] | MIC [3] | MIC [4] | MIC [5] | MIC [6] |
| --- | --- | --- | --- | --- | --- | --- |
| CC(C)(O/N=C(\C(=O)N[C@H]1CN(OCC(=O)O)C1=O)c1csc(N)n1)C(=O)O [Example 5, (3S)-3-[2-(2-aminothiazol-4-yl)-(Z)-2-(1-carboxy-1-methylethoxyimino)acetamido]-1-carboxymethoxy-2-azetidinone disodium salt] | 50 µg/mL | 0.78 µg/mL | 1.56 µg/mL | 0.78 µg/mL | 6.25 µg/mL | 1.56 µg/mL |
| CC(C)(O/N=C(\C(=O)N[C@@H]1C(=O)N(OCC(=O)O)[C@H]1COC(N)=O)c1csc(N)n1)C(=O)O (relative stereo) [Example 18, trans-3-[2-(2-aminothiazol - 4-yl) - (Z) -2-(1-carboxy-1-methylethoxyimino)acetamido]-4-carbamoyloxymethyl-l-carboxymethoxy-2-azetidinone disodium salt] | 0.78 µg/mL | 0.78 µg/mL | < 0.1 µg/mL | < 0.1 µg/mL | 12.5 µg/mL | 0.39 µg/mL |
| CCN1CCN(C(=O)N[C@@H](C(=O)N[C@@H]2C(=O)N(OCC(=O)O)[C@H]2C)c2ccccc2)C(=O)C1=O [Example 4, (3S,4S)-1-carboxymethoxy-3-[(D)-2-(4-ethyl-2,3-dioxopiperazine-1-carbonylamino)-2-phenylacetamido]-4-methyl-2-azetidinone monosodium salt] | > 100 µg/mL | 12.5 µg/mL | 12.5 µg/mL | 1.56 µg/mL | 25 µg/mL | 6.25 µg/mL |
| NC(=O)OC[C@H]1[C@H](NC(=O)/C(=N\OCC(=O)O)c2csc(N)n2)C(=O)N1OCC(=O)O (relative stereo) [Example 17, trans-3-[2-(2-aminothiazol-4-yl)-(Z)-2-carboxymethoxyiminoacetamido]-4-carbamoyloxymethyl-l-carboxy-methoxy-2-azetidinone disodium salt] | 0.78 µg/mL | 0.39 µg/mL | 0.39 µg/mL | 0.39 µg/mL | 100 µg/mL | 0.39 µg/mL |
| CO/N=C(\C(=O)N[C@@H]1C(=O)N(OCC(=O)O)[C@H]1C)c1csc(N)n1 [Example 2, (3S,4S)-3-[2-aminothiazol-4-yl)-(Z)-2-methoxyiminoacetamido]-1-carboxymethoxy-4-methyl-2-azetidinone monosodium salt] | 12.5 µg/mL | 0.39 µg/mL | 0.39 µg/mL | 0.39 µg/mL | > 100 µg/mL | 0.39 µg/mL |

Next, values leading:

| MIC [1] | MIC [2] | MIC [3] | MIC [4] | MIC [5] | MIC [6] | Compound |
| --- | --- | --- | --- | --- | --- | --- |
| 12.5 µg/mL | 0.39 µg/mL | < 0.1 µg/mL | < 0.1 µg/mL | 6.25 µg/mL | 0.39 µg/mL | C[C@H]1[C@H](NC(=O)/C(=N\OC(C)(C)C(=O)O)c2csc(N)n2)C(=O)N1OCC(=O)O [Example 3, (3S,4S)-3-[2-(2-aminothiazol-4-yl)-(Z)-2-(1-carboxy-1-methylethoxyimino)acetamido]-1-carboxymethoxy-4-methyl-2-azetidinone disodium salt] |
| 50 µg/mL | 0.39 µg/mL | 0.39 µg/mL | 0.39 µg/mL | > 100 µg/mL | 0.39 µg/mL | C[C@H]1[C@H](NC(=O)/C(=N\OCC(=O)O)c2csc(N)n2)C(=O)N1OCC(=O)O [Example 19, (3S,4S)-3-[2-(2-aminothiazol-4-yl)-(Z)-2-carboxymethoxy-iminoacetamido]-1-carboxymethoxy-4-methyl-2-azetidinone disodium salt] |

Source: EP0135194A1, “Azetidinones and their production” (Takeda Chemical Industries, Ltd., priority 1983, dated 1985)
